We go through two compounds from patent US6881751B2, “Medicament containing platinum complex compounds and the use thereof” (Ruprecht Karls Universitat, priority 1998, dated 2005).

The test system of data set [1] is Bronchial carcinoma cells (SCLC). Put plainly: Anti-tumoral effect on a human parvocellular bronchial carcinoma in naked mice. The data set is classed as in vivo, Nu/Nu mice, strain NMRI. Conditions: 10 mg/kg intravenously, SCLC tumors about 8 mm, FIG. 1. How it is done: a) Anti-Tumoral Effect on a Human Parvocellular Bronchial Carcinoma in Naked Mice
Bronchial carcinoma cells (SCLC) were implanted under the skin of six-week-old Nu/Nu mice, strain NMRI (5×10^6 cells in 0.1 ml common salt solution). The tumors had reached a size of about 8 mm after two weeks. Then, five animals each were treated intravenously with either 0.2 ml common salt solution/[…]/1% acetone (control group) or with 10 mg/kg compound according to Example 1 in common salt solution/1% BSA/1% acetone (treated group). The tumor growth was controlled daily. The values are shown in enclosed FIG. 1.

The subject of data set [2] is SW707 cells of a colorectal carcinoma. As to the kind of experiment: Antitumoral effect on human xenotransplants, SW707. The data set is classed as in vivo, Nu/Nu-Swiss mice. Conditions: single i.p. injection 10 mg/kg, FIG. 4B.
For data set [3], the system named is Colon carcinoma cells (SW707). Put plainly: Anti-tumoral effect on a human colon carcinoma in naked mice. The data set is classed as in vivo, Nu/Nu mice, strain NMRI. Conditions: SW707 tumors about 10 mm, FIG. 2. The source says:
b) Anti-Tumoral Effect of a Compound According to Example 1 on a Human Colon Carcinoma in Naked Mice Colon carcinoma cells (SW707) were implanted under the skin of 6-week-old Nu/Nu mice, strain NMRI (5×10^6 cells in common salt solution).

The test system of the next data set is HeLa cells. Put plainly: pH dependence of the effectiveness of cytostatic agents (live cell count, trypan blue). The data set is classed as cell-based, Human. To be noted: pH 7.4 vs pH 6.8, 24 hours, FIG. 3. How it is done: The number of live cells was determined after vital staining using trypan blue in Neubauer's counting chamber.
Data set [4] can be described thus: Body weight of the xenotransplant group suffering from parvocellular pulmonary carcinoma. The data set is classed as in vivo, Nu/Nu-Swiss mice. How it is done: The tumor sizes were determined in two directions and the relative tumor growth was calculated.
(C): Average body weights of the group suffering from parvocellular pulmonary carcinoma. The standard deviations were less than 3%.

The subject of data set [5] is Human H10 cells of a parvocellular bronchial carcinoma. As to the kind of experiment: Antitumoral effect on human xenotransplants, H10. Conditions: single i.p. injection 10 mg/kg, FIG. 4A. The data set is classed as in vivo, Nu/Nu-Swiss mice.
The next data set deals with cell lines. As to the kind of experiment: Dependence of the cytotoxicity on the pH value, all cell lines of the table. The data set is classed as cell-based. To be noted: pH 6.8 vs pH 7.4, cell lines of the table. The procedure:
Cells were plated in Linbro dishes or plates and, after 4 hours, the cells were fed with a medium which included either 2.2 g/l (pH 7.4) or 0.85 g/l (pH 6.8) NaHCO3.

Structures are written as SMILES.

With `CCOC1=[S+][Pt-2]2([S]1)[S]C(OCC)=[S+]2` [Example 1, bis-[O-ethyldithiocarbanato]Platinum (II)], the tumor size entry in data set [1] was “decreased in size”. Besides, the “effect on tumor growth” value in data set [2] is listed as “tumor growth could be prevented”. Further, the tumor growth entry in data set [3] (7.5 mg/kg intravenously (treated group I)) was “tumor growth was slowed down”. In addition, in the data set on HeLa cells, the “pH dependence of effectiveness” value was “effective maximum in the slightly acidic range”. In addition, in data set [4] (mouse, in vivo, ip, 10 mg/kg), the weight loss result is on record as “no weight loss”.
In the case of `N.N.[Cl][Pt][Cl]` [cisplatin], the “tumor size as compared to the control group” value in data set [5] stood at 50%. Further, the “effect on tumor growth” value in data set [2] is listed as “no effect”. Moreover, the “pH effect on IC50” value in the data set on cell lines is given as “poorer with pH 6.8 than with pH 7.4 or there was no detectable pH effect”. In data set [3] (10 mg/kg intravenously (treated group II)), the tumor growth entry is “constant tumor growth”. For the same compound, in the data set with HeLa cells, the “pH dependence of effectiveness” value is listed as “better effects in the alkaline range”. For the same compound, the weight loss in data set [4] (day 3 after the treatment, 10 mg/kg i.p., FIG. 4C) stood at 12%; in data set [4] (day 6 after the treatment, 10 mg/kg i.p., FIG. 4C), 13%.
